Laboratory results published in ChEMBL document CHEMBL1201862, “PubChem BioAssay data set” (2004).
One block for each compound: values may come before it. Activity calls are given as the source filed them.

What was measured:
[1] = biological target: Luciferin 4-monooxygenase (Photinus pyralis, UniProt P08659); assay: inhibition of purified Photinus pyralis luciferase – biochemical, luminescence, dose response (AID 1891)
[2] = Luminescence Cell-Based Dose Confirmation HTS to Identify Inhibitors of Platelet Dense Granule Release. [Related pubchem assays: 1663 (Primary HTS), 1678 (Summary of Project)]; type: functional
SUMO-activating enzyme [3] = biological target: T1, SUMO-activating enzyme (Homo sapiens, UniProt Q9UBT2); assay: blockers of SAE1/SAE2–UBC9 SUMO transfer – biochemical, HTRF, uHTS, primary screen (AID 2006); type: protein-complex assay
T1 sequence (Q9UBE0 whole entry): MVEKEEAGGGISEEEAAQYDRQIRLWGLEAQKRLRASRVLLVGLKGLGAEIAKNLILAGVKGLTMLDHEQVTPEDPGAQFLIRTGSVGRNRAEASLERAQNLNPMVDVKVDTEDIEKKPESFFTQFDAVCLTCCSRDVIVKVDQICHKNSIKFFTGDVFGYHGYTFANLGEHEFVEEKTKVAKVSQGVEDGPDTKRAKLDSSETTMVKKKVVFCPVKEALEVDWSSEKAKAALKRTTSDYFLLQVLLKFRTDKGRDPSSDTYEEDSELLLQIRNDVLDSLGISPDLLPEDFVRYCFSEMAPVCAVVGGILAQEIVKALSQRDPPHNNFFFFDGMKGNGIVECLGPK
T1 sequence (Q9UBT2 whole entry): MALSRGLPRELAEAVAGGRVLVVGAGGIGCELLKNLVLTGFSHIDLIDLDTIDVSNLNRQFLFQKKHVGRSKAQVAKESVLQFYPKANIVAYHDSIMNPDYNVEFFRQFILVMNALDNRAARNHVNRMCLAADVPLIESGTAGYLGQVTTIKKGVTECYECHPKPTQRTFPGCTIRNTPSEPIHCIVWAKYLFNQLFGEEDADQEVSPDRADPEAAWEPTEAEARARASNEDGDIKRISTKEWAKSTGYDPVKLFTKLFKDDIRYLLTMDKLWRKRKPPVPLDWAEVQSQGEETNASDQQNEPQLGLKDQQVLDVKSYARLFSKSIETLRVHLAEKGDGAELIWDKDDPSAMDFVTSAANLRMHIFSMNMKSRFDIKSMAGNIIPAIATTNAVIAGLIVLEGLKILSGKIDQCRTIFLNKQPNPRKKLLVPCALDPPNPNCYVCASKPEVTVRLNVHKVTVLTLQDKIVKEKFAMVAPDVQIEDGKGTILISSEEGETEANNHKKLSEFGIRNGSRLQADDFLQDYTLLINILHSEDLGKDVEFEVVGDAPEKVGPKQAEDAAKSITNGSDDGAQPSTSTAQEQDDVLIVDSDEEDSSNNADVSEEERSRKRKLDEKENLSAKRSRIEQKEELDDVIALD

SUMO-activating enzyme [4] = biological target: T1, SUMO-activating enzyme; assay: blockers of UBC9-mediated SUMO conjugation – biochemical, AlphaScreen, SUMOylation inhibitor project, confirmation (AID 2018); type: functional
[5] = biological target: 1-phosphatidylinositol 4,5-bisphosphate phosphodiesterase gamma-1 (Homo sapiens, UniProt P19174); assay: Counterscreen for inhibitors of phospholipase C isozymes (PLC-B3): Fluorescence-based biochemical high throughput dose response assay to identify inhibitors of phospholipase C isozymes (PLC-gamma1).
1-phosphatidylinositol 4,5-bisphosphate phosphodiesterase gamma-1, sequence (P19174 whole entry): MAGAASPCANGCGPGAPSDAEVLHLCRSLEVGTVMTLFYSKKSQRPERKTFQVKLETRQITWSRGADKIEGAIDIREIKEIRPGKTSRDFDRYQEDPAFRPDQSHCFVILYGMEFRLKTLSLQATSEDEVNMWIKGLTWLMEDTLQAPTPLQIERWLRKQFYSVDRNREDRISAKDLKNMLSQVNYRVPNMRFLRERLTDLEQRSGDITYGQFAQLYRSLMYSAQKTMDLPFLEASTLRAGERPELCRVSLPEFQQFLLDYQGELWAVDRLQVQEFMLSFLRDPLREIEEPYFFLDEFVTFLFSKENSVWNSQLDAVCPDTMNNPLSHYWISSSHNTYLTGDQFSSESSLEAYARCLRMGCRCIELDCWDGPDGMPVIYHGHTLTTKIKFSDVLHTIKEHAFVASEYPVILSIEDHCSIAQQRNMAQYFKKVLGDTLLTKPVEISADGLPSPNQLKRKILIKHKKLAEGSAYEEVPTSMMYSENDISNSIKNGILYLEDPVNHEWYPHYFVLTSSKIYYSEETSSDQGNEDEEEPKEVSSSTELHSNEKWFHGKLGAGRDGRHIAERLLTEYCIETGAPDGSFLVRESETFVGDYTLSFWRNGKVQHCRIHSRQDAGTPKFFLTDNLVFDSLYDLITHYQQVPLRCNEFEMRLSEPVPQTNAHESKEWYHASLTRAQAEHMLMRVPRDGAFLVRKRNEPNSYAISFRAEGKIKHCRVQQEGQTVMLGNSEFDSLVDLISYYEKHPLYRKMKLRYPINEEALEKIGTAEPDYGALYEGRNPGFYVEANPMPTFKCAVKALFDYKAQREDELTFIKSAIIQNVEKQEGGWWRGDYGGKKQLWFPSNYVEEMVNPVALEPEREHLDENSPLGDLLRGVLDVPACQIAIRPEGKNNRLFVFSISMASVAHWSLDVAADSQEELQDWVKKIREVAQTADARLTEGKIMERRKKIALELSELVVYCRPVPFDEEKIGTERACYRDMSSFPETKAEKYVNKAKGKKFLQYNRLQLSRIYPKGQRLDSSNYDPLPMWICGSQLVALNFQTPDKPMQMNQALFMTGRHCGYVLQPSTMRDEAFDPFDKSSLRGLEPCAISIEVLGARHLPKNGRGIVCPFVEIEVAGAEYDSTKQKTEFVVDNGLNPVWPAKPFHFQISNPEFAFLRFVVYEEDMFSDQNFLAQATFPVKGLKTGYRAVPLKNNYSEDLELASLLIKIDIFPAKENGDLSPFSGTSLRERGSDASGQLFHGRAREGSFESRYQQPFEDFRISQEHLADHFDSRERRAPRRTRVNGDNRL

[6] = biological target: Heat shock protein HSP 90-alpha (Homo sapiens, UniProt P07900); type: functional, organism-based
[7] = biological target: 1-phosphatidylinositol 4,5-bisphosphate phosphodiesterase beta-3 (Homo sapiens, UniProt Q01970); assay: Fluorescence-based biochemical high throughput dose response assay to identify inhibitors of phospholipase C isozymes (PLC-B3).
1-phosphatidylinositol 4,5-bisphosphate phosphodiesterase beta-3, sequence (Q01970 whole entry): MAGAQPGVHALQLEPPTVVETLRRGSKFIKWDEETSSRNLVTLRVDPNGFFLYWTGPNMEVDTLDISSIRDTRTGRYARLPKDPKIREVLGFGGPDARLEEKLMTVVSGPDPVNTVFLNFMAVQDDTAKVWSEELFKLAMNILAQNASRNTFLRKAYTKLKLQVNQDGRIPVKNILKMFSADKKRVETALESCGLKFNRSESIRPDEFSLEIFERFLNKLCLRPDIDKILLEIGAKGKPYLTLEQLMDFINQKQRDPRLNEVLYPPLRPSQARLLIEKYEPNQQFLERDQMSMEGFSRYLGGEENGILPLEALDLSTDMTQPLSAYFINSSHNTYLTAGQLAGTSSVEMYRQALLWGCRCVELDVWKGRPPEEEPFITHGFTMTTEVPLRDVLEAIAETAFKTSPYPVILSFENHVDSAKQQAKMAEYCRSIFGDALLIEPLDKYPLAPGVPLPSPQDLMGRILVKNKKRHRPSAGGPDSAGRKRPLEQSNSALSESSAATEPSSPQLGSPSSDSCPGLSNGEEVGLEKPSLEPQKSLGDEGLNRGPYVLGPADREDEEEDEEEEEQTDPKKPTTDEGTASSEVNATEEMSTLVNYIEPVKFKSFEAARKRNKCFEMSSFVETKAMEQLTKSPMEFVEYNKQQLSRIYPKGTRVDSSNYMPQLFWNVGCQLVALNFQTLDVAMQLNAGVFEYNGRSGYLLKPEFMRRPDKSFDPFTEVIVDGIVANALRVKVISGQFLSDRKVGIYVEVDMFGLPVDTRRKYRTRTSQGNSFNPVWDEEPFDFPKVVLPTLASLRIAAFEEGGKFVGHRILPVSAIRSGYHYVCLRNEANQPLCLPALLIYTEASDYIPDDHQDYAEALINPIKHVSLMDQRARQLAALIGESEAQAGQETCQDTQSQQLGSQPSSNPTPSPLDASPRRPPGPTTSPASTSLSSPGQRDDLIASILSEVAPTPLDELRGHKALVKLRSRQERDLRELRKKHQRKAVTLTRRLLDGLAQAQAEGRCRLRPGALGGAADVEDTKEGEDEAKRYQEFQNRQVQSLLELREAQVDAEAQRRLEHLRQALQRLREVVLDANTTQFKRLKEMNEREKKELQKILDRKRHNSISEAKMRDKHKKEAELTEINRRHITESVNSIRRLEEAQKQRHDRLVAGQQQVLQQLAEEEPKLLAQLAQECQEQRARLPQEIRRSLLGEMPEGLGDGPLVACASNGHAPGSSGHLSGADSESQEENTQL

[8] = biological target: T2, Histone-lysine N-methyltransferase NSD2 (Homo sapiens, UniProt O96028); type: biochemical
T2 sequence (O96028 whole entry): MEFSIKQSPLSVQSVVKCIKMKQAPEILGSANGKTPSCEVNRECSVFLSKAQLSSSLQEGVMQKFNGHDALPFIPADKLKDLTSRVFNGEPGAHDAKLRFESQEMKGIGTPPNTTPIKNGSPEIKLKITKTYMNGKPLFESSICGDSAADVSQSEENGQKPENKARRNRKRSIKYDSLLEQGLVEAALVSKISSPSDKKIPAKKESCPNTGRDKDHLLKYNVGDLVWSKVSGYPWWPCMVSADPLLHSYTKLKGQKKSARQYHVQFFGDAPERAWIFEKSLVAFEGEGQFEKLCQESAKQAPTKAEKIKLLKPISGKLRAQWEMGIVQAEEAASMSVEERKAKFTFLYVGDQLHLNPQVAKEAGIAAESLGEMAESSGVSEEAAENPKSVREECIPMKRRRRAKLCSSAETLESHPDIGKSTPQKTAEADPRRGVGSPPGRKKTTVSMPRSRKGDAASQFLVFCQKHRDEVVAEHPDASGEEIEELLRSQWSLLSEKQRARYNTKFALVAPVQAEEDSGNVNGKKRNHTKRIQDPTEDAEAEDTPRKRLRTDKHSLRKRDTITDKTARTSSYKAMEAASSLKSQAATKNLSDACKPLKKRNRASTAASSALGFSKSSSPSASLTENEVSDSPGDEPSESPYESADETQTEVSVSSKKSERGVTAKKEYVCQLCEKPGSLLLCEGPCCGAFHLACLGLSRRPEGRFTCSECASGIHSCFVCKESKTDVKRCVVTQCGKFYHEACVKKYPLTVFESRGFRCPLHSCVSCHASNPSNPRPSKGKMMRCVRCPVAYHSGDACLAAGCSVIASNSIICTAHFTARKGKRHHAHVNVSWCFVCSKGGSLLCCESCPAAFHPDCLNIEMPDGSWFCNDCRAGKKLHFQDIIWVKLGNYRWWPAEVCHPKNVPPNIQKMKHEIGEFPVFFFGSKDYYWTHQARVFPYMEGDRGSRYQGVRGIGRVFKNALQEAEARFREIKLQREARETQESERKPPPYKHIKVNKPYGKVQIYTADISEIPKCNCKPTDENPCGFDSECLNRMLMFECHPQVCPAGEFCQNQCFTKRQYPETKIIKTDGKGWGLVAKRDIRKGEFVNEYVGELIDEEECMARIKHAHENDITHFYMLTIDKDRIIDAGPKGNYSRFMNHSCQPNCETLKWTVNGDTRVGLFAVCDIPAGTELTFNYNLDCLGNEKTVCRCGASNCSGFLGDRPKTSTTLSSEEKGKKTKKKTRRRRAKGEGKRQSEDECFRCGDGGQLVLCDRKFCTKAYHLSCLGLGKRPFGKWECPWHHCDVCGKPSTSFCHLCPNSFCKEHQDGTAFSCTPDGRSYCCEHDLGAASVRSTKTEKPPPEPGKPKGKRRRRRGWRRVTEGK

Caspase-3 = biological target: T3, Caspase-3 (Homo sapiens, UniProt P42574); assay: human caspase-3 protease activity blockade – biochemical, fluorescence, cherry-picked samples, selectivity assay for caspase-6 allosteric inhibitor project, dose response (AID 743291)
T3 sequence (P42574 whole entry): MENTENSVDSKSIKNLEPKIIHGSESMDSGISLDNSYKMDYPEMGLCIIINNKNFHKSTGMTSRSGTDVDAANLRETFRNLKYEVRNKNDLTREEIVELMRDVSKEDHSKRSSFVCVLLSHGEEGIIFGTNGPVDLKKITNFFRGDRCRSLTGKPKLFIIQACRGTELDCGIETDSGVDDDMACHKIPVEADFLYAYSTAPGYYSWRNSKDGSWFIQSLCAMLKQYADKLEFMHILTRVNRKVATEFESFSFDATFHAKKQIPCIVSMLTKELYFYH

[9] = biological target: T4, Zinc finger protein mex-5 (Caenorhabditis elegans, UniProt Q9XUB2); assay: potency of MEX-5 RNA-binding blockers – biochemical, C. elegans, fluorescence polarization, dose response (AID 1960)
T4 sequence (Q9XUB2 whole entry): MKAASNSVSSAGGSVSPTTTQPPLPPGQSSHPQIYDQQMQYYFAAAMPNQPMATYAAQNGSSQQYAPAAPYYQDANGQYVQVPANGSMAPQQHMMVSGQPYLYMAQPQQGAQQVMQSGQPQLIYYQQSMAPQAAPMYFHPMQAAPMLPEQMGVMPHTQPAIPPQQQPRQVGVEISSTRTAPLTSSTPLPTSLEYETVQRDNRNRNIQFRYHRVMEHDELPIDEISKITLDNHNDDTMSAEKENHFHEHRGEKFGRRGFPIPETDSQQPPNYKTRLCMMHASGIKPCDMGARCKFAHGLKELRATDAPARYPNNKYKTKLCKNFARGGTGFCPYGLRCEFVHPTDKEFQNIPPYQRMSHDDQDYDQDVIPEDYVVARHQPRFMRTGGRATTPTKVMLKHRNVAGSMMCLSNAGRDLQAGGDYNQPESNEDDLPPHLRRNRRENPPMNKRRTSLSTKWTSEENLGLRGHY

Caspase-7 = Caspase-7 (Homo sapiens, UniProt P55210); assay: caspase-7 enzyme inhibition, selectivity check – biochemical, DEVD-R110 fluorescence, cherry-pick, selectivity assay for caspase-6 inhibitor project, dose response (AID 743295); type: functional
Caspase-7, sequence (P55210 24-198 limits assumed): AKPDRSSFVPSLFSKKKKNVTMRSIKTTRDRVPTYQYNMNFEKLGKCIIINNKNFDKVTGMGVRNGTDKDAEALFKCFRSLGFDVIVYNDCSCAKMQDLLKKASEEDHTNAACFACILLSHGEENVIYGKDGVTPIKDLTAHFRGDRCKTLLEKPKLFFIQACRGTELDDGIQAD
Caspase-7, sequence (P55210 207-303 limits assumed): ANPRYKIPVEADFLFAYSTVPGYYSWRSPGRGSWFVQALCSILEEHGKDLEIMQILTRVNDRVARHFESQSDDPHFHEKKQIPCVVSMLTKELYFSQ

Caspase-6 = biological target: T5, Caspase-6 (Homo sapiens, UniProt P55212); assay: inhibition of CASP6 peptide cleavage – biochemical, VEID-R110 fluorescence, cherry-pick, dose response (AID 720632)
T5 sequence (P55212 whole entry): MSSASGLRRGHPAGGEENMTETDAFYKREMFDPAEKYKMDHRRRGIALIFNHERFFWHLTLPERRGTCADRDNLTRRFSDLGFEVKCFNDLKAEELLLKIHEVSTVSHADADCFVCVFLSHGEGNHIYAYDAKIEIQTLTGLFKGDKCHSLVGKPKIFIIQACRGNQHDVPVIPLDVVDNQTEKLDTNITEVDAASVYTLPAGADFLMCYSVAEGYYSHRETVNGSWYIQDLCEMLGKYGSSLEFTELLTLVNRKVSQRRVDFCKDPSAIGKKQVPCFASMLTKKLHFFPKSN

[10] = biological target: T6, RNA-binding protein pos-1 (Caenorhabditis elegans, UniProt G5EF15); assay: disruptors of C. elegans POS-1 RNA interaction – biochemical, fluorescence polarization, dose response (AID 1964);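 note: purified POS-1 fused to maltose binding protein made in E. coli; potency of compounds blocking POS-1 binding to fluorescent RNA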
T6 sequence (G5EF15 whole entry): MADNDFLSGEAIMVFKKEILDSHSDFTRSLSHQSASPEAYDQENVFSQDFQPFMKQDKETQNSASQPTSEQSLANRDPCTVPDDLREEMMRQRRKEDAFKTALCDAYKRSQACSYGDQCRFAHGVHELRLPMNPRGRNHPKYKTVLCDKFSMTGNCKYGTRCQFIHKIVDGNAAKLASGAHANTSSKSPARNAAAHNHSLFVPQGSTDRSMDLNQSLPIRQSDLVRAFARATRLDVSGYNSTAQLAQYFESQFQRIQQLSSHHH

[11] = biological target: T7, Carboxy-terminal domain RNA polymerase II polypeptide A small phosphatase 1 (Homo sapiens, UniProt Q9GZU7); assay: CTDSP1 inhibitors, concentration-response, biochemical, absorbance readout, ultra-high-throughput screen actives (AID 540297); type: functional
T7 sequence (Q9GZU7 whole entry): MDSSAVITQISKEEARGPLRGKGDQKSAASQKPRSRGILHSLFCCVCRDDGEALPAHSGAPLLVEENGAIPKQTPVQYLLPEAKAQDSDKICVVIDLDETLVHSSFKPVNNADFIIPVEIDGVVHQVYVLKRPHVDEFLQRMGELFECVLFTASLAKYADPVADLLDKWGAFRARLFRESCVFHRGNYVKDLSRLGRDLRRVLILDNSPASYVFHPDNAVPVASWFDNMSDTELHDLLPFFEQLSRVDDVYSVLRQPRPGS

[12] = biological target: T8, Oxysterols receptor LXR-beta (Homo sapiens, UniProt P55055); type: functional, cell-based;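 note: agonist activity at LXR measured by a cell-based luminescence readout across a dose range, run as a counterscreen for daf-12 agonists; HEK293 cells with Gal4-LXR fusion and GAL4-driven luciferase reporter; potency for activation of Gal4-LXR reporter so compounds are agonists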
T8 sequence (P55055 whole entry): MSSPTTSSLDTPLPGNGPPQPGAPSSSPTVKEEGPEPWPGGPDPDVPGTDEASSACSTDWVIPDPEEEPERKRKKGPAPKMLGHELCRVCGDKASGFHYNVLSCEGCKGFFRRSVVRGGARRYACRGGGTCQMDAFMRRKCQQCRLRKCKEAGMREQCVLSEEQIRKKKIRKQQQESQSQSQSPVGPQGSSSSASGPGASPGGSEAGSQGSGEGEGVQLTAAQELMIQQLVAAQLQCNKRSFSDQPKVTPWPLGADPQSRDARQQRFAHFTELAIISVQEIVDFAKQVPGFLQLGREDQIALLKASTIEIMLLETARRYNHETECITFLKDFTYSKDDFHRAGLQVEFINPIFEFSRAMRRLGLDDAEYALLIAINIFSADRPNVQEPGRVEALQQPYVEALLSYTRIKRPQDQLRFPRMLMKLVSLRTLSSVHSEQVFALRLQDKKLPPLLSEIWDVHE

Luciferin 4-monooxygenase, sequence (P08659 whole entry): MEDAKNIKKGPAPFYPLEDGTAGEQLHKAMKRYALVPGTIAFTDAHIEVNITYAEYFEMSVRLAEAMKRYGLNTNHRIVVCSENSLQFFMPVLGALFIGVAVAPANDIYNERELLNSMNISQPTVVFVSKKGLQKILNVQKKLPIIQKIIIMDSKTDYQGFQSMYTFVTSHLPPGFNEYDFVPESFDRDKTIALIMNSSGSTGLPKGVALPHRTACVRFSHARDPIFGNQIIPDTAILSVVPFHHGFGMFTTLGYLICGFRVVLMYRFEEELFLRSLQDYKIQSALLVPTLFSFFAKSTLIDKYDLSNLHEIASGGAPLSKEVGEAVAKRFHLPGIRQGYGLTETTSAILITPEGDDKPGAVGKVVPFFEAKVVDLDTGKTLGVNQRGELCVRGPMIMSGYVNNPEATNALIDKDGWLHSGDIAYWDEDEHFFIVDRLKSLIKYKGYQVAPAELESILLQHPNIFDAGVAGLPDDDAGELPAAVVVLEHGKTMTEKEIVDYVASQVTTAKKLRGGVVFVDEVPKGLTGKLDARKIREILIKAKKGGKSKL

SMILES: Nc1ncnc2c1ncn2[C@@H]1O[C@H](COP(=O)(O)O)[C@@H](O)[C@@H]1O
EC50 [1]: 1.08 µM (active)
EC50 [2]: 0.946 µM (active)
IC50 (SUMO-activating enzyme [3]): 16.6 µM (active)
IC50 (SUMO-activating enzyme [4]): 7.95 µM (active)
IC50 [5]: 8.71 µM (active)
AC50 [6]: 1.92 µM (active)
IC50 [7]: > 122 µM (inactive)

AC50 [8]: 10.6 µM (active)
AC50 (Caspase-3): 43.1 µM (active)
EC50 [9]: > 300 µM (not active)
AC50 (Caspase-7): > 70 µM (inactive)
AC50 (Caspase-6): 1.47 µM (active)
EC50 [10]: > 300 µM (not active)
IC50 [11]: 4.61 µM (active)
SMILES: Cc1cc(C=O)c(C)n1-c1ccc(Cl)c(C(=O)O)c1

EC50 [12]: > 67.6 µM (inactive)
SMILES: Cc1ccc2nc(C)/c(=N\O)c(C)nc2c1
